In paper PMC11477289, “Low-Basicity 5-HT6 Receptor Ligands from the Group of Cyclic Arylguanidine Derivatives and Their Antiproliferative Activity Evaluation” (International Journal of Molecular Sciences, 2024):
Read-outs that look alike come from different tables or passages of the source.

Assays:
human 5-HT6 = biological target: T1, human 5-HT6 (Homo sapiens, UniProt P50406); assay: [3H]-LSD radioligand binding assay, 5-HT6R; conditions: HEK293 expressing human 5-HT6R
T1 construct: expressed in transfected cells
T1 sequence (P50406 whole entry): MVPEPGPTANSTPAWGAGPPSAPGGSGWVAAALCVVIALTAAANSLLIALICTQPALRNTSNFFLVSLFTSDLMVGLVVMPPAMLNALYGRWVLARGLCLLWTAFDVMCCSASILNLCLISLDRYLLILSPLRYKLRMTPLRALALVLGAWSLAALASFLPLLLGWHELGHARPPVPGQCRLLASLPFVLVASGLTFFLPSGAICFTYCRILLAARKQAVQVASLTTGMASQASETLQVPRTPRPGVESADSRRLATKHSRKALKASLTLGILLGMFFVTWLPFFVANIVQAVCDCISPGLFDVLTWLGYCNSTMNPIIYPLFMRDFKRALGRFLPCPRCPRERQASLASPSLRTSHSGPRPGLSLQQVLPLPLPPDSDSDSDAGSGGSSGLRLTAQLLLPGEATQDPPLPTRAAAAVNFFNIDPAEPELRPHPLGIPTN
Procedure: Next, the ligands’ affinity for the 5-HT6 receptors was evaluated in the [^3H]-LSD radioligand binding assay. Experiments were performed in a stable HEK293 cell line expressing the human 5-HT6R.
The pellets were stored at −80 °C.

[1] = Chromatographic hydrophobicity index on C18 column (lipophilicity); assay type: physicochemical
[2] = Affinity to phospholipids, IAM column (CHI IAM); assay type: physicochemical; conditions: IAM.PC.DD2 column, pH 7.4
Source text: We began with an assay for lipophilicity, affinity for phospholipids (for 40 compounds), and drug binding to human serum albumin (HSA) (for 20 compounds), using chromatographic protocols developed by Valko [46] and implemented in our laboratory [47]. […] These methods allowed the determination of chromatographic hydrophobicity indices (CHIs), binding to HSA (%HSA), and phospholipids (CHIIAM) using a single-gradient elution experiment and comparison to reference substances.
The mobile phase flow rate was 1.5 mL/min, and the column was maintained at 30 °C. • Chiralpak® HSA (50 mm × 4 mm; 5 µm with safety guard column; Daicel Chiral Technologies, West Chester, PA, USA), mobile phase A: 50 mM ammonium acetate, mobile phase B: HPLC-grade isopropanol (VWR International, Leuven, Belgium). For the first 15 min, the linear gradient from 0 to 20% isopropanol was applied and then held at 20% isopropanol for 12 min. In the last 5 min of the sequence, the mobile phase mixture received a pure ammonium acetate solution. The column temperature was held at 30 °C, whereas the flow rate was 0.9 mL/min.
The reference substances for the calibration of HSA, C18, and IAM columns were purchased, respectively: acetanilide, butyrophenone, diclofenac, and octanonophenone (Alfa Aesar, Haverhill, MA, USA); acetophenone, benzimidazole, colchicine, indole, indometacin, paracetamol, and theophylline (Sigma-Aldrich, Steinheim, Germany); nicardipine and nizatidine (Cayman Chemical, Ann Arbor, MI, USA); carbamazepine, heptanophenone, hexanophenone, propiophenone, and valerophenone (Acros Organic, Pittsburg, PA, USA). Before chromatographic experiments, solutes were dissolved in dimethyl sulfoxide (Avantor Performance Materials Poland S.A., Gliwice, Poland) to obtain a 200 µg/mL concentration. The detection was performed in the UV region at the wavelength from 190 nm to 300 nm. The injected volume was 5 μL, and each compound was analyzed in triplicate.

Compound	melting point [°C]	Ki (human 5-HT6; read-out: 5-HT6 Ki) [nM]	CHI C18 pH 2.6 [1]	CHI C18 pH 7.4 [1]	CHI C18 pH 10.5 [1]	CHI IAM [2]	Ki (human 5-HT6; 5-HT6 Ki) [nM]
CC1NC(NS(=O)(=O)c2cccc3ccccc23)=Nc2ccc(Cl)cc21 (centres unmarked) [PR 69, N -(6-chloro-4-methyl-3,4-dihydroquinazolin-2-yl)naphthalene-1-sulfonamide]	144 to 153	372 ± 93					
CC1NC(NS(=O)(=O)c2ccc3ccccc3c2)=Nc2ccc(Cl)cc21 (centres unmarked) [PR 35, N -(6-chloro-4-methyl-3,4-dihydroquinazolin-2-yl)naphthalene-2-sulfonamide]		2380 ± 593					
O=S(=O)(NC1=NCc2ccccc2N1)c1ccccc1 [PR 13, N-(3,4-dihydroquinazolin-2-yl)benzenesulfonamide]		2610 ± 651					
COc1ccc(Cl)cc1S(=O)(=O)NC1=Nc2ccccc2CN1 [PR 25, 5-chloro-N-(3,4-dihydroquinazolin-2-yl)-2-methoxybenzene-1-sulfonamide]	157 to 165	4640 ± 1160	82.8	81.0	83.0	35.3	
Nc1nc2ccccc2n1S(=O)(=O)c1cccc2ccccc12 [PR 3, 1-(naphthalene-1-sulfonyl)-1H-1,3-benzodiazol-2-amine]		148 ± 37					
O=S(=O)(NC1=Nc2cccc(Cl)c2CN1)c1c(Cl)ccc2ccccc12 [PR 52, 2-chloro-N-(5-chloro-3,4-dihydroquinazolin-2-yl)naphthalene-1-sulfonamide]	267 to 270	133 ± 33					
COc1ccc2c(c1)N=C(NS(=O)(=O)c1cccc3ccccc13)NC2 [PR 60, N -(7-methoxy-3,4-dihydroquinazolin-2-yl)naphthalene-1-sulfonamide]	213 to 217	1410 ± 326	88.2	87.0	90.3	39.2	
O=S(=O)(NC1=Nc2ccccc2CN1)c1ccc(C(F)(F)F)cc1 [PR 16, N -(3,4-dihydroquinazolin-2-yl)-4-(trifluoromethyl)benzene-1-sulfonamide]		5100 ± 1270					
N#Cc1cccc(S(=O)(=O)n2c(N)nc3ccccc32)c1 [PR 2, 3-[(2-amino-1H-1,3-benzodiazol-1-yl)sulfonyl]benzonitrile]		49200 ± 1230					
Cc1ccc2c(c1)N=C(NS(=O)(=O)c1cccc3ccccc13)NC2 [PR 62, N -(7-methyl-3,4-dihydroquinazolin-2-yl)naphthalene-1-sulfonamide]	166 to 175	653 ± 151	93.2	93.0	93.7	41.6	
Nc1nc2ccccc2n1S(=O)(=O)c1ccc2ccccc2c1 [PR 4, 1-(naphthalene-2-sulfonyl)-1H-1,3-benzodiazol-2-amine]		330 ± 83					
O=S(=O)(NC1=Nc2cc(F)ccc2CN1)c1cccc2ccccc12 [PR 56, N -(7-fluoro-3,4-dihydroquinazolin-2-yl)naphthalene-1-sulfonamide]	222 to 226	876 ± 201	91.0	89.0	95.4	40.5	
O=S(=O)(NC1=Nc2cccc(Cl)c2CN1)c1ccc2ccccc2c1 [PR 31, N -(5-chloro-3,4-dihydroquinazolin-2-yl)naphthalene-2-sulfonamide]	202 to 204	2170 ± 538	99.7	97.4	100.6	46.0	
Nc1nc2ccccc2n1S(=O)(=O)c1csc2ccccc12 [PR 8, 1-(1-benzothiophene-3-sulfonyl)-1H-1,3-benzodiazol-2-amine]	192 to 195		89.8	90.3	91.0	40.3	133 ± 33
CC1NC(NS(=O)(=O)c2ccccc2)=Nc2ccccc21 (centres unmarked) [PR 28, N -(4-methyl-3,4-dihydroquinazolin-2-yl)benzenesulfonamide]		4030 ± 1010					
O=S(=O)(NC1=Nc2ccccc2CN1)c1ccc(Cl)c(Cl)c1 [PR 21, N -(3,4-dihydroquinazolin-2-yl)-3,4-dichlorobenzene-1-sulfonamide]	192 to 193	1020 ± 256	94.2	92.3	95.2	42.0	
Nc1nc2ccccc2n1S(=O)(=O)c1ccccc1 [PR 1, 1-(benzenesulfonyl)-1H-1,3-benzodiazol-2-amine]		2160 ± 539					
O=S(=O)(NC1=Nc2ccccc2CN1)c1ccc(F)c(F)c1 [PR 15, N -(3,4-dihydroquinazolin-2-yl)-3,4-difluorobenzene-1-sulfonamide]		5270 ± 1330					
CC1NC(NS(=O)(=O)c2cccc3ccccc23)=Nc2cc(Cl)ccc21 (centres unmarked) [PR 70, N -(7-chloro-4-methyl-3,4-dihydroquinazolin-2-yl)naphthalene-1-sulfonamide]	214 to 219	985 ± 245	100.2	99.7	101.0	45.8	
O=S(=O)(NC1=Nc2ccccc2CN1)c1cccc(Cl)c1Cl [PR 20, 2,3-dichloro-N-(3,4-dihydroquinazolin-2-yl)benzene-1-sulfonamide]		293 ± 73					

Compound	melting point [°C]	Ki (human 5-HT6; read-out: 5-HT6 Ki) [nM]	CHI C18 pH 2.6 [1]	CHI C18 pH 7.4 [1]	CHI C18 pH 10.5 [1]	CHI IAM [2]	Ki (human 5-HT6; 5-HT6 Ki) [nM]
O=S(=O)(NC1=Nc2ccccc2CN1)c1cc(Cl)cc(Cl)c1 [PR 23, 3,5-dichloro-N-(3,4-dihydroquinazolin-2-yl)benzene-1-sulfonamide]	208 to 211	609 ± 152	95.2	94.6	97.7	42.6	
O=S(=O)(NC1=Nc2ccccc2CN1)c1ccc(F)cc1 [PR 14, N-(3,4-dihydroquinazolin-2-yl)-4-fluorobenzene-1-sulfonamide]	215 to 216	2440 ± 610	75.4	75.0	75.7	31.3	
O=S(=O)(NC1=Nc2ccc(N3CCOCC3)cc2CN1)c1cccc2ccccc12 [PR 65, N -[6-(morpholin-4-yl)-3,4-dihydroquinazolin-2-yl]naphthalene-1-sulfonamide]	278 to 281	4700 ± 1080					
CN(C)c1cccc2c1CNC(NS(=O)(=O)c1cccc3ccccc13)=N2 [PR 63, N -[5-(dimethylamino)-3,4-dihydroquinazolin-2-yl]naphthalene-1-sulfonamide]		151 ± 35					
CN(c1nc2ccccc2n1C)S(=O)(=O)c1ccc2ccccc2c1 [PR 12, N -methyl-N-(1-methyl-1H-1,3-benzodiazol-2-yl)naphthalene-2-sulfonamide]		41900 ± 10500					
N -(3,4-dihydroquinazolin-2-yl)naphthalene-2-sulfonamide [PR 39]		4270 ± 983					
O=S(=O)(NC1=Nc2ccccc2CN1)c1c(Cl)cccc1Cl [PR 22, 2,6-dichloro-N-(3,4-dihydroquinazolin-2-yl)benzene-1-sulfonamide]	168 to 174	1460 ± 364					
O=S(=O)(NC1=NCc2ccccc2N1)c1ccc2ccccc2c1 [PR 29, N -(3,4-dihydroquinazolin-2-yl)naphthalene-2-sulfonamide]		3630 ± 909					
O=S(=O)(NC1=Nc2ccccc2CN1)c1ccc(-c2ccccc2)cc1 [PR 26, N -(3,4-dihydroquinazolin-2-yl)-[1,1′-biphenyl]-4-sulfonamide]		4310 ± 1080					
Cc1c(S(=O)(=O)n2c(N)nc3ccccc32)sc2ccc(F)cc12 [PR 7, 1-[(5-fluoro-3-methyl-1-benzothiophen-2-yl)sulfonyl]-1H-1,3-benzodiazol-2-amine]		2950 ± 737					
Nc1nc2cc(Cl)ccc2n1S(=O)(=O)c1cccc2ccccc12 [PR 6, 5-chloro-1-(naphthalene-1-sulfonyl)-1H-1,3-benzodiazol-2-amine]		704 ± 176					
O=S(=O)(NC1=Nc2ccc(F)cc2CN1)c1cccc2ccccc12 [PR 55, N -(6-fluoro-3,4-dihydroquinazolin-2-yl)naphthalene-1-sulfonamide]	206 to 210	1790 ± 412					
O=S(=O)(NC1=NCc2cc(Cl)ccc2N1)c1ccc2ccccc2c1 [PR 32, N -(6-chloro-3,4-dihydroquinazolin-2-yl)naphthalene-2-sulfonamide]		948 ± 212					
O=S(=O)(NC1=NCCc2ccccc2N1)c1ccc2ccccc2c1 [PR 38, N -(4,5-dihydro-1H-1,3-benzodiazepin-2-yl)naphthalene-2-sulfonamide]	175 to 180	1410 ± 331					
O=S(=O)(NC1=Nc2ccc(C(F)(F)F)cc2CN1)c1cccc2ccccc12 [PR 57, N -[6-(trifluoromethyl)-3,4-dihydroquinazolin-2-yl]naphthalene-1-sulfonamide]	215 to 222	1020 ± 235					
O=S(=O)(NC1=Nc2ccccc2CN1)c1cccc2cccc(Cl)c12 [PR 45, 8-chloro-N-(3,4-dihydroquinazolin-2-yl)naphthalene-1-sulfonamide]	103 to 105	736 ± 169					
O=S(=O)(NC1=Nc2ccc(Cl)cc2CN1)c1ccccc1 [PR 27, N -(6-chloro-3,4-dihydroquinazolin-2-yl)benzenesulfonamide]		1690 ± 422					
CC1NC(NS(=O)(=O)c2ccc3ccccc3c2)=Nc2ccccc21 (centres unmarked) [PR 34, N -(4-methyl-3,4-dihydroquinazolin-2-yl)naphthalene-2-sulfonamide]		702 ± 152					
Nc1nc2ccccc2n1S(=O)(=O)c1ccc2c(c1)CC(=O)N2 [PR 5, 5-[(2-amino-1H-1,3-benzodiazol-1-yl)sulfonyl]-2,3-dihydro-1H-indol-2-one]		14800 ± 3690					
O=S(=O)(Nc1nc2ccccc2[nH]1)c1ccccc1 [PR 10, N -(1H-1,3-benzodiazol-2-yl)benzenesulfonamide]		1720 ± 429					
